The text below walks through data of article PMC11079024, “Identification of a family of species-selective complex I inhibitors as potential anthelmintics” (Nature Communications, 2024).

As usually defined, the LC50 is the concentration lethal to half of the exposed cells or organisms. By IC50 is commonly meant the concentration that gives 50% inhibition.

Where two headings read alike, the source gives them in different places.

For experiment [1], the system named is L1 wild-type C. elegans. In words: microbe, parasite or virus in culture. Conditions: Caenorhabditis elegans, read-out: C. elegans KCN Survival Assay LC50, estimated from fitted dose-response curves; mean of at least two biological replicates.
The target of experiment [2] is C. elegans (N2) complex I (NADH:ubiquinone oxidoreductase) (Caenorhabditis elegans, UniProt P24887+Q93873+Q94360). In words: biochemical. Format: biochemical. The note with it: for Log IC50 C. elegans complex I: log10 of IC50 in µM, C. elegans mitochondria; for activity at 0.0001 µM / activity at 0.0005 µM / activity at 0.001 µM / activity at 0.0025 µM / activity at 0.005 µM / activity at 0.013 µM / activity at 0.025 µM / activity at 0.063 µM / activity at 0.125 µM / activity at 0.313 µM / activity at 0.625 µM / activity at 1.5 µM / activity at 3 µM / activity at 15 µM / activity at 37.5 µM / activity at 75 µM: read-out: C. elegans mitochondrial complex I activity. A digest of the protocol: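 Compounds were tested against freeze-thawed isolated mitochondria (0.2 mg/mL protein). NADH:decylubiquinone activity was monitored via DCIP absorbance at 600 nm, and the initial linear slope was normalised to solvent controls.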

[3] abbreviates: wild-type C. elegans, individual Rep1-Rep4, read-out: percent in vitro complex I activity relative to solvent control, single replicates.
[4] abbreviates: wild-type C. elegans, mean of Rep1-4, read-out: percent in vitro complex I activity relative to solvent control, Mean.
The mark [5] stands for this setting: in vitro complex I dose response on C. elegans mitochondria, average of at least two biological replicates, fit in R (DRC), read-out: IC50 C. elegans complex I.
[6] abbreviates: wild-type (N2) mitochondria, read-out: C. elegans Complex I IC50.
[7] abbreviates: wild-type C. elegans mitochondria, estimated from fitted dose-response curves, read-out: C. elegans Complex I IC50.
[8] abbreviates: wild-type C. elegans mitochondria, read-out: C. elegans Complex I IC50.

C. elegans (N2) complex I (NADH:ubiquinone oxidoreductase), sequence (Q94360 17-199): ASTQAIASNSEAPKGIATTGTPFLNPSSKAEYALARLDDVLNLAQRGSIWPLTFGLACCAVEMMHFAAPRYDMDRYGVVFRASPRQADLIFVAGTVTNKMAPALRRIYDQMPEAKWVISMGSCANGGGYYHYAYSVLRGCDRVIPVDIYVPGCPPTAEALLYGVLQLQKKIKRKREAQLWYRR
C. elegans (N2) complex I (NADH:ubiquinone oxidoreductase), sequence (P24887 whole entry): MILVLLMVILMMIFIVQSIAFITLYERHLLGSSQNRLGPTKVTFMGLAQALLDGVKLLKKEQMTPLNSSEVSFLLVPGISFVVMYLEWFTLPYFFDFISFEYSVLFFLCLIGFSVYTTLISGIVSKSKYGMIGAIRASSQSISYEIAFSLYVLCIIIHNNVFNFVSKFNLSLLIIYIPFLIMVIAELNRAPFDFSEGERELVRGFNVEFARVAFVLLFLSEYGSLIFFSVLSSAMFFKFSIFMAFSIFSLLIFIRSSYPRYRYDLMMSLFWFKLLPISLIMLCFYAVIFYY
C. elegans (N2) complex I (NADH:ubiquinone oxidoreductase), sequence (Q93873 31-482): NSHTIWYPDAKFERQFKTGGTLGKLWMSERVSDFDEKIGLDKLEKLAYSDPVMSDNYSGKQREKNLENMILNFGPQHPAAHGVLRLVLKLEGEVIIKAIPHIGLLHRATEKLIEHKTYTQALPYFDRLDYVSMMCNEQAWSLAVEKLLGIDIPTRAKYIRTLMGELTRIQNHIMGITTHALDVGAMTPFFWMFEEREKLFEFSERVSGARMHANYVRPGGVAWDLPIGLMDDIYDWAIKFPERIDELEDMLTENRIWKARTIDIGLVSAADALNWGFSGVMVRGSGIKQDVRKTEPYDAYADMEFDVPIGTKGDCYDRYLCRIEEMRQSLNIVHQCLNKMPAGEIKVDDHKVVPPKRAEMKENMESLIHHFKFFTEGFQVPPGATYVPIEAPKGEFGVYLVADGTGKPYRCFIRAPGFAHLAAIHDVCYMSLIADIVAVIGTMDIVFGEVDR

For `Cc1nc2ccccc2n1Cc1ccc(Br)cc1` [Compound 5567167], in experiment [1], the LC50 is 1.34 µM. Besides, in experiment [2] (setting [3]), the remaining activity at 0.0001 µM was 94%, the remaining activity at 0.0005 µM is 85.1%, the remaining activity at 0.001 µM stood at 85.9% and the remaining activity at 0.005 µM came out at 78%. Further, in experiment [2] (setting [3]), the remaining activity at 0.013 µM turned out to be 72.2%, the remaining activity at 0.025 µM came out at 66.7%, the remaining activity at 0.063 µM is 38.8% and the remaining activity at 0.125 µM came to 23.6%. In addition, in experiment [2] (setting [3]), the remaining activity at 0.313 µM came out at 8.78%, the remaining activity at 15 µM came to 0% and the remaining activity at 37.5 µM was found to be 0%. For the same molecule, in experiment [2] (setting [4]), the remaining activity at 0.0001 µM was 85.9%, the remaining activity at 0.0005 µM is 85.6%, the remaining activity at 0.001 µM is 84.4% and the remaining activity at 0.005 µM worked out at 79.5%. Besides, in experiment [2] (setting [4]), the remaining activity at 0.013 µM is 70.5%, the remaining activity at 0.025 µM was found to be 62%, the remaining activity at 0.063 µM turned out to be 36% and the remaining activity at 0.125 µM worked out at 23.7%. Further, in experiment [2] (setting [4]), the remaining activity at 0.313 µM was 11.9%, the remaining activity at 15 µM stood at 0% and the remaining activity at 37.5 µM turned out to be 0%. For the same molecule, the remaining activity at 0.0025 µM in experiment [2] (0.0025 µM, wild-type C. elegans, mean of Rep1-4, read-out: percent in vitro complex I activity relative to solvent control, Mean) was found to be 79.7%. Besides, the remaining activity at 0.625 µM in experiment [2] (0.625 µM, wild-type C. elegans, mean of Rep1-4, read-out: percent in vitro complex I activity relative to solvent control, Mean) worked out at 2.34%. In experiment [2] (1.5 µM, wild-type C. elegans, mean of Rep1-4, read-out: percent in vitro complex I activity relative to solvent control, Mean), the remaining activity at 1.5 µM was determined as 0.485%. Moreover, the remaining activity at 3 µM in experiment [2] (3 µM, wild-type C. elegans, mean of Rep1-4, read-out: percent in vitro complex I activity relative to solvent control, Mean) stood at 0.612%. Also, the remaining activity at 75 µM in experiment [2] (75 µM, wild-type C. elegans, mean of Rep1-4, read-out: percent in vitro complex I activity relative to solvent control, Mean) worked out at 0.911%. Further, in experiment [2] (setting [5]), the IC50 is 32 nM. The “Log IC50 C. elegans complex I” value in experiment [2] is -1.49 µM. For the same molecule, the IC50 in experiment [2] (setting [6]) is 32 nM. Moreover, in experiment [2] (setting [7]), the IC50 was 32 nM.
Take `Clc1ccc(Cn2cnc3ccccc32)cc1Cl` [Compound 5571325]: the LC50 in experiment [1] was 13.1 µM. In addition, in experiment [2], the activity at 0.0001 µM came out at 90.4%, the activity at 0.0005 µM came to 92.7%, the activity at 0.001 µM is 95.2% and the activity at 0.0025 µM turned out to be 95.4%. In addition, in experiment [2], the activity at 0.005 µM came out at 92.8%, the activity at 0.013 µM is 92.4%, the activity at 0.025 µM turned out to be 92.1% and the activity at 0.063 µM is 90.9%. Further, in experiment [2], the activity at 0.125 µM was found to be 87.7%, the activity at 0.313 µM came to 83.6%, the activity at 0.625 µM stood at 83% and the activity at 1.5 µM was 69.7%. Besides, in experiment [2], the activity at 3 µM is 57.2%, the activity at 15 µM was determined as 19%, the activity at 37.5 µM came to 8.47% and the activity at 75 µM worked out at 7.02%. Moreover, the “Log IC50 C. elegans complex I” value in experiment [2] is listed as 0.64 µM. In addition, the IC50 in experiment [2] (setting [5]) turned out to be 4380 nM. For the same molecule, the IC50 in experiment [2] (setting [6]) was 4380 nM. Also, the 50% inhibitory concentration (IC50) in experiment [2] (setting [8]) is 4380 nM.
Turning to `Cc1ccc(Cn2c(C)nc3ccccc32)cc1` [Compound 5651984], the LC50 in experiment [1] is 7.24 µM. Also, the concentration for half-maximal inhibition (IC50) in experiment [2] (setting [5]), in experiment [2] (setting [6]) and in experiment [2] (setting [7]) was 180 nM in each case. Also, in experiment [2], the “Log IC50 C. elegans complex I” value is -0.74 µM.
As to `Nc1nc2ccccc2n1Cc1ccc(Cl)cc1` [Compound 5652765], in experiment [1], the median lethal concentration (LC50) is 16.9 µM. Further, in experiment [2], the activity at 0.0001 µM came to 86.1%, the activity at 0.0005 µM worked out at 92.1%, the activity at 0.001 µM is 93.5% and the activity at 0.0025 µM is 93.8%. In addition, in experiment [2], the activity at 0.005 µM was 90.5%, the activity at 0.013 µM was determined as 90.4%, the activity at 0.025 µM came to 78.8% and the activity at 0.063 µM worked out at 76.6%. In experiment [2], the activity at 0.125 µM stood at 72.5%, the activity at 0.313 µM was determined as 39.7%, the activity at 0.625 µM amounted to 49.3% and the activity at 1.5 µM came to 25.2%. Further, in experiment [2], the activity at 3 µM came out at 11.5%, the activity at 15 µM came out at 0.44%, the activity at 37.5 µM turned out to be 0.7% and the activity at 75 µM stood at 0.75%. Moreover, the “Log IC50 C. elegans complex I” value in experiment [2] is reported as -0.33 µM. In experiment [2] (setting [5]), the IC50 is 470 nM. For the same molecule, the IC50 in experiment [2] (setting [6]) was 470 nM. In experiment [2] (setting [7]), the IC50 is 470 nM.
As to `Cc1nc2ccccc2n1Cc1ccc(Cl)c(Cl)c1` [Compound 5655567], the 50% lethal concentration (LC50) in experiment [1] was 8.26 µM. For the same molecule, in experiment [2], the activity at 0.0001 µM stood at 86.1%, the activity at 0.0005 µM came out at 92.1%, the activity at 0.001 µM was 93.5% and the activity at 0.0025 µM turned out to be 93.8%. In experiment [2], the activity at 0.005 µM worked out at 90.5%, the activity at 0.013 µM was 90.4%, the activity at 0.025 µM was 78.8% and the activity at 0.063 µM was 76.6%. Also, in experiment [2], the activity at 0.125 µM stood at 72.5%, the activity at 0.313 µM amounted to 39.7%, the activity at 0.625 µM turned out to be 49.3% and the activity at 1.5 µM was found to be 25.2%. In experiment [2], the activity at 3 µM was 11.5%, the activity at 15 µM amounted to 0.44%, the activity at 37.5 µM is 0.7% and the activity at 75 µM came to 0.75%. Moreover, the “Log IC50 C. elegans complex I” value in experiment [2] is -0.33 µM. The IC50 in experiment [2] (setting [5]) stood at 470 nM. Further, the IC50 in experiment [2] (setting [6]) was 470 nM. The IC50 in experiment [2] (setting [7]) is 470 nM.
In the case of `Cc1ccc(OCCn2cnc3ccccc32)cc1` [Compound 5671538], the median lethal concentration (LC50) in experiment [1] is 28.3 µM. Moreover, in experiment [2], the activity at 0.0001 µM was found to be 97.2%, the activity at 0.0005 µM came out at 96.5%, the activity at 0.001 µM was 95.3% and the activity at 0.0025 µM is 106%. In experiment [2], the activity at 0.005 µM worked out at 90.9%, the activity at 0.013 µM came to 104%, the activity at 0.025 µM was determined as 98% and the activity at 0.063 µM stood at 92.5%. In experiment [2], the activity at 0.125 µM turned out to be 91.2%, the activity at 0.313 µM stood at 90%, the activity at 0.625 µM turned out to be 88.7% and the activity at 1.5 µM was determined as 79.2%. In experiment [2], the activity at 3 µM was 75%, the activity at 15 µM turned out to be 18.9%, the activity at 37.5 µM was 23.9% and the activity at 75 µM was found to be 13.8%. Further, the “Log IC50 C. elegans complex I” value in experiment [2] came out at 0.73 µM. Further, the concentration for half-maximal inhibition (IC50) in experiment [2] (setting [5]) amounted to 5330 nM. The IC50 in experiment [2] (setting [8]) was 5330 nM.
